Data on 35 compounds can be found in patent US20050197350A1, “Novel quinoline, tetrahydroquinazoline, and pyrimidine derivatives and methods of treatment related to the use thereof” (TAISHO PHARMACEUTICAL CO., LTD., priority 2003, published 2005).

This test relates to MCH receptors. Description: MCH receptor activity class (method not given).
[1] abbreviates: class by percent of control at 10^-7 M or IC50.
The mark [2] stands for this setting: MCH receptor, class by percent of control at 10^-7 M or IC50.
[3] abbreviates: activity class per percent of control at 10^-7 M or IC50.
Setting [4] is: MCH receptor activity class 1-3 (percent of control at 10^-7 M or IC50).
The mark [5] stands for this setting: class by percent of control at 10^−7 M or IC50.

Where two headings read alike, the source gives them in different places.

For the compound `COc1cccc(NC(=O)N[C@H]2CC[C@@H](Nc3nc4c(c(N(C)C)n3)CCCC4)CC2)c1` [compound 1834], the class under setting [1] was 3 (Class 3 The value of percent of control at 10^−7 M was more than 60% or the value of IC50 was more than 200 nM.). For `CN(C)c1cc(N[C@H]2CC[C@@H](NC(=O)OCc3ccccc3)CC2)nc2ccccc12` [compound 55], the class under setting [2] is listed as 3 (Class 3 The value of percent of control at 10^−7 M was more than 60% or the value of IC50 was more than 200 nM.).

For `CCOC(=O)c1cccc(NC(=S)N[C@H]2CC[C@@H](Nc3nc4c(c(N(C)C)n3)CCCC4)CC2)c1` [Example 1773], the class under setting [1] is listed as 3 (Class 3 The value of percent of control at 10^−7 M was more than 60% or the value of IC50 was more than 200 nM.). Take `CN(C)c1cc(N[C@H]2CC[C@@H](NC(=O)COCc3ccccc3)CC2)nc2ccccc12` [compound 95]: the class under setting [2] is listed as 3 (Class 3 The value of percent of control at 10^−7 M was more than 60% or the value of IC50 was more than 200 nM.). Same read-out and setting: the value for `CN(C)c1cc(N[C@H]2CC[C@@H](NC(=O)c3ccc(F)c(F)c3)CC2)nc2ccccc12` [compound 33, N-(cis-4-{[4-(dimethylamino)quinolin-2-yl]amino}cyclohexyl)-3,4-difluorobenzamide] was 1 (Class 1: The value of percent of control at 10^−7 M was less than 40% or the value of IC50 was less than 50 nM.); that for `Cc1cc(C(=O)N[C@H]2CC[C@@H](Nc3cc(N(C)C)c4ccccc4n3)CC2)n(C)n1` [compound 103] was 3 (Class 3 The value of percent of control at 10^−7 M was more than 60% or the value of IC50 was more than 200 nM.). For `CN(C)c1cc(N[C@H]2CC[C@@H](CNC(=O)Cc3csc4ccccc34)CC2)nc2ccccc12` [compound 811], the class under setting [1] is 3 (Class 3 The value of percent of control at 10^−7 M was more than 60% or the value of IC50 was more than 200 nM.). For the compound `CN(C)c1cc(N[C@H]2CC[C@@H](CNC(=O)c3ccc(F)c(Cl)c3F)CC2)nc2ccccc12` [compound 189, 3-chloro-N-[(cis-4-{[4-(dimethylamino)quinolin-2-yl]amino}cyclohexyl)methy]-2,4-difluorobenzamide], the class under setting [2] is reported as 3 (Class 3 The value of percent of control at 10^−7 M was more than 60% or the value of IC50 was more than 200 nM.).

Take `CN(C)c1cc(N[C@H]2CC[C@@H](CNC(=O)c3cncc(Br)c3)CC2)nc2ccccc12` [compound 215]: the class under setting [2] is recorded as 3 (Class 3 The value of percent of control at 10^−7 M was more than 60% or the value of IC50 was more than 200 nM.). The same measure, in the same setting: the value for `CN(C)c1cc(N[C@H]2CC[C@@H](CNC(=O)c3ccc(Cl)c([N+](=O)[O-])c3)CC2)nc2ccccc12` [compound 154] was 3 (Class 3 The value of percent of control at 10^−7 M was more than 60% or the value of IC50 was more than 200 nM.). For the compound `COc1cc(OC)c(CNC[C@H]2CC[C@@H](Nc3cc(N(C)C)c4ccccc4n3)CC2)c(OC)c1` [compound 1161], under setting [1], the class is given as 2 (Class 2: The value of percent of control at 10^−7 M was from 40% to 60% or the value of IC′50 was from 50 nM to 200 nM.).

In the case of `COc1cc(Cl)ccc1CNC[C@H]1CC[C@@H](Nc2nc3c(c(N(C)C)n2)CCCC3)CC1` [compound 1507], the class under setting [1] is given as 3 (Class 3 The value of percent of control at 10^−7 M was more than 60% or the value of IC50 was more than 200 nM.). For `Cc1cccc(CNC(=O)[C@H]2CC[C@@H](Nc3nc(C)cc(N(C)C)n3)CC2)c1` [Example 2586, cis-4-{[4-(dimethylamino)-6-methylpyrimidin-2-yl]amino}-N-(3-methylbenzyl)cyclohexanecarboxamide], the class was found to be 1. Take `CN(C)c1cc(N[C@H]2CC[C@@H](CNCc3ccc4c(c3)OCCO4)CC2)nc2ccccc12` [compound 1142]: under setting [3], the class is 3 (Class 3 The value of percent of control at 10^−7 M was more than 60% or the value of IC50 was more than 200 nM.).

Take `CN(C)c1cc(N[C@H]2CC[C@@H](NC(=S)NC3CC4CCC3C4)CC2)nc2ccccc12` (relative stereo) [compound 2310]: the class under setting [4] is 3 (Class 3 The value of percent of control at 10^−7 M was more than 60% or the value of IC50 was more than 200 nM.).

`COc1ccc(CNC[C@H]2CC[C@@H](Nc3nccc(N(C)C)n3)CC2)c2ccccc12` [compound 1247]: the class under setting [1] is 1 (Class 1: The value of percent of control at 10^−7 M was less than 40% or the value of IC50 was less than 50 nM.).

Turning to `CN(C)c1cc(N[C@H]2CC[C@@H](NC(=S)NCc3cccc(Cl)c3)CC2)nc2ccccc12` [compound 2292], under setting [4], the class is reported as 3 (Class 3 The value of percent of control at 10^−7 M was more than 60% or the value of IC50 was more than 200 nM.). Consider `CN(C)c1cc(N[C@H]2CC[C@@H](CNC(=O)c3ccc(Cl)s3)CC2)nc2ccccc12` [compound 792], for which the class under setting [1] is given as 3 (Class 3 The value of percent of control at 10^−7 M was more than 60% or the value of IC50 was more than 200 nM.). On to `Cc1c(Cl)cccc1NC(=O)N[C@H]1CC[C@@H](Nc2nc3c(c(N(C)C)n2)CCCC3)CC1` [compound 1685], for which, for the setting “activity class 1-3: percent of control at 10^-7 M or IC50”, the class is reported as 3 (Class 3 The value of percent of control at 10^−7 M was more than 60% or the value of IC50 was more than 200 nM.). Consider `CCc1cccc(CC)c1NC(=O)NC[C@H]1CC[C@@H](Nc2nccc(N(C)C)n2)CC1` [compound 2418, N-(2,6-diethylphenyl)-N′-[(cis-4-{[4-(dimethylamino)pyrimidin-2-yl]amino}cyclohexyl)methyl]urea], for which the class under setting [4] is given as 1 (Class 1: The value of percent of control at 10^−7 M was less than 40% or the value of IC50 was less than 50 nM.).

`CN(C)c1cc(N[C@H]2CC[C@@H](CNC(=O)c3ccc(C#N)cc3)CC2)nc2ccccc12` [compound 204]: the class under setting [2] is reported as 3 (Class 3 The value of percent of control at 10^−7 M was more than 60% or the value of IC50 was more than 200 nM.). On to `Cc1cnc(N[C@H]2CC[C@@H](C(=O)N[C@H](C)c3cccc4ccccc34)CC2)nc1N(C)C` [compound 2782, cis-4-{[4-(dimethylamino)-5-methylpyrimidin-2-yl]amino}-N-[(1R)-1-(1-naphthyl)ethyl]cyclohexanecarboxamide], for which the class under setting [5] is given as 1 (Class 1: The value of percent of control at 10^−7 M was less than 40% or the value of IC50 was less than 50 nM.). As to `Cc1cccc(C(=O)NC[C@H]2CC[C@@H](Nc3nc4c(c(N(C)C)n3)CCCC4)CC2)c1C` [compound 672], under setting [1], the class is 3 (Class 3 The value of percent of control at 10^−7 M was more than 60% or the value of IC50 was more than 200 nM.). With `CN(C)c1cc(N[C@H]2CC[C@@H](CNC(=O)c3cccc(Br)c3)CC2)nc2ccccc12` [compound 148], the class under setting [2] was 3 (Class 3 The value of percent of control at 10^−7 M was more than 60% or the value of IC50 was more than 200 nM.). For the compound `Cc1nc(N[C@H]2CC[C@@H](NC(=O)c3cccc(O)n3)CC2)nc(N(C)C)c1C` [compound 2863], the class under setting [5] was 3 (Class 3 The value of percent of control at 10^−7 M was more than 60% or the value of IC50 was more than 200 nM.). `CN(C)c1nc(N[C@H]2CC[C@@H](NC(=S)NC(C)(C)C)CC2)nc2c1CCCC2` [compound 1961]: the class under setting [2] is listed as 3 (Class 3 The value of percent of control at 10^−7 M was more than 60% or the value of IC50 was more than 200 nM.).

Regarding `CCOC(=O)[C@H](Cc1ccccc1)NC(=O)N[C@H]1CC[C@@H](Nc2cc(N(C)C)c3ccccc3n2)CC1` (relative stereo) [compound 2160], the class under setting [1] is given as 3 (Class 3 The value of percent of control at 10^−7 M was more than 60% or the value of IC50 was more than 200 nM.). As for `CN(C)c1cc(N[C@H]2CC[C@@H](NC(=O)c3cccc(OC(F)(F)F)c3)CC2)nc2ccccc12` [compound 54, N-(cis-4-{[4-(dimethylamino)quinolin-2-yl]amino}cyclohexyl)-3-(trifluoromethoxy)benzamide], the class under setting [2] is given as 2 (Class 2: The value of percent of control at 10^−7 M was from 40% to 60% or the value of IC′50 was from 50 nM to 200 nM.). As for `CN(C)c1nc(N[C@H]2CC[C@@H](NC(=O)c3ccccc3-c3ccccc3)CC2)nc2c1CCCC2` [compound 1031], under setting [3], the class is 3 (Class 3 The value of percent of control at 10^−7 M was more than 60% or the value of IC50 was more than 200 nM.). With `Cc1c(C(=O)N[C@H]2CC[C@@H](Nc3cc(N(C)C)c4ccccc4n3)CC2)cc(-c2ccccc2)n1-c1ccccc1` [compound 751], under setting [1], the class is on record as 3 (Class 3 The value of percent of control at 10^−7 M was more than 60% or the value of IC50 was more than 200 nM.). On to `CN(C)c1nc(N[C@H]2CC[C@@H](NC(=S)Nc3ccc(S(N)(=O)=O)cc3)CC2)nc2c1CCCC2` [compound 2051], for which the class under setting [2] was 3 (Class 3 The value of percent of control at 10^−7 M was more than 60% or the value of IC50 was more than 200 nM.). For the compound `COc1ccc(C(=O)N[C@H]2CC[C@@H](Nc3nc(C)c(C)c(N(C)C)n3)CC2)c(OC)n1` [compound 2832, N-(cis-4-{[4-(dimethylamino)-5,6-dimethylpyrimidin-2-yl]amino}cyclohexyl)-2,6-dimethoxynicotinamide], under setting [5], the class was 1 (Class 1: The value of percent of control at 10^−7 M was less than 40% or the value of IC50 was less than 50 nM.). On the same count and under the same terms, for `Cc1nc(N[C@H]2CC[C@@H](NC(=O)c3ccc(OC(F)(F)F)cc3)CC2)nc(N(C)C)c1C` [compound 2843, N-(cis-4-{[4-(dimethylamino)-5,6-dimethylpyrimidin-2-yl]amino}cyclohexyl)-4-(trifluoromethoxy)benzamide] the value was 2 (Class 2: The value of percent of control at 10^−7 M was from 40% to 60% or the value of IC′50 was from 50 nM to 200 nM.); for `Cc1nc(N[C@H]2CC[C@@H](NC(=O)c3cccc(OC(F)(F)F)c3)CC2)nc(N(C)C)c1C` [compound 2856], 1 (Class 1: The value of percent of control at 10^−7 M was less than 40% or the value of IC50 was less than 50 nM.). Turning to `Cc1cc(C)cc(NC(=O)N[C@H]2CC[C@@H](Nc3nc4c(c(N(C)C)n3)CCCC4)CC2)c1` [compound 1869], under setting [1], the class is listed as 3 (Class 3 The value of percent of control at 10^−7 M was more than 60% or the value of IC50 was more than 200 nM.).
